According to patent US7141560B2, “Alanine 2,6-dialkoxyphenyl ester derivatives as hypnotics” (Akzo Nobel N.V., priority 2001, dated 2006):

system: mice; assay: Hypnotic activity: loss of righting reflex after intravenous injection in mice; type: in vivo; settings: Mus musculus, intravenous injection over 10 seconds, dose causing loss of righting reflex for minimum 30 seconds in 50% of treated mice, read-out: HD50 (hypnotic dose50)
Method: The hypnotic potency of the alanine 2,6-dialkoxyphenyl ester derivatives of the invention was determined upon their intravenous administration in mice. The dose required to cause a loss of righting reflex for a minimum period of 30 seconds in 50% of treated mice after intravenous injection over 10 seconds was determined. This dose is termed the HD50 (hypnotic dose50) and is expressed in μmol.kg^−1. These in vivo experiments were carried out as described in detail by Anderson et al., J. Med. Chem. 1997, 40, 1668–1681.

| Molecule | ED50 [µmol/kg] |
| --- | --- |
| COCC(C(=O)Oc1c(OC)cc(C)cc1OC)N1CCSCC1 (stereo not shown) [Example 3j, 3-Methoxy-2-[N-thiomorpholinyl]propionic acid, 2,6-dimethoxy-4-methylphenyl ester] | 42 |
| COCCN(C)C(COC)C(=O)Oc1c(OC)cc(C)cc1OC (stereo not shown) [Example 3l, 3-Methoxy-2-[N-(2-Methoxyethyl)methylamino]propionic acid, 2,6-dimethoxy-4-methylphenyl ester] | 58 |
| COCC(C(=O)Oc1c(OC)cc(C)cc1OC)N1CCCC1 (stereo not shown) [Example 3n, 3-Methoxy-2-[1-pyrrolidinyl]propionic acid, 2,6-dimethoxy-4-methylphenyl ester] | 34 |
| COCCC(C(=O)Oc1c(OC)cccc1OC)N1CCOCC1 (stereo not shown) [Example 10b, 4-Methoxy-2-[4-morpholinyl]butyric acid, 2,6-dimethoxyphenyl ester] | 38 |
| COCCC(C(=O)Oc1c(OC)cccc1OC)N1CCCCC1 (stereo not shown) [Example 10f, 4-Methoxy-2-[1-piperidinyl]butyric acid, 2,6-dimethoxyphenyl ester] | 22 |
| COCCC(C(=O)Oc1c(OC)cc(C)cc1OC)N1CCOCC1 (stereo not shown) [Example 10i, 4-Methoxy-2-[4-morpholinyl]butyric acid, 2,6-dimethoxy-4-methylphenyl ester] | 36 |
| CCOCCC(C(=O)Oc1c(OC)cccc1OC)N1CCOCC1 (stereo not shown) [Example 10o, 4-Ethoxy-2-[4-morpholinyl]butyric acid, 2,6-dimethoxyphenyl ester] | 36 |

same assay, conditions: intravenous injection over 10 seconds, dose causing loss of righting reflex for minimum 30 seconds in 50% of treated mice

| Molecule | HD50 (hypnotic dose50) [µmol/kg] |
| --- | --- |
| 2-[N-(Bis(2-methoxyethyl)amino)]-4-ethoxybutyric acid, 2,6-dimethoxy-4-methylphenyl ester [Example 10v] | 41 |
| 2-[N-(Hexahydroazepinyl)]-3-methoxypropionic acid, 2,6-dimethoxyphenyl ester [Example 3d] | 22 |
| COCC(C(=O)Oc1c(OC)cccc1OC)N1CCCOCC1 (stereo not shown) [Example 3a, 2-[4-(Hexahydro-1-oxazepinyl)]-3-methoxypropionic acid, 2,6-dimethoxyphenyl ester] | 30 |
| COCCN(CCOC)C(COC)C(=O)Oc1c(OC)cccc1OC (stereo not shown) [Example 3b, 2-[N-Bis(2-methoxyethyl)amino]-3-methoxypropionic acid, 2,6-dimethoxyphenyl ester] | 41 |
| COCC(C(=O)Oc1c(OC)cccc1OC)N1CCSCC1 (stereo not shown) [Example 3c, 3-Methoxy-2-[N-thiomorpholinyl]propionic acid, 2 ,6-dimethoxyphenyl ester] | 21 |
| COCCCN(CCCOC)C(COC)C(=O)Oc1c(OC)cccc1OC (stereo not shown) [Example 3f, 2-[N-Bis(3-methoxypropyl)amino]-3-methoxypropionic acid, 2,6-dimethoxyphenyl ester] | 46 |
| CCOCCN(CCOCC)C(COC)C(=O)Oc1c(OC)cccc1OC (stereo not shown) [Example 3g, 2-[N-Bis(3-ethoxyethyl)amino]-3-methoxypropionic acid, 2,6-dimethoxyphenyl ester] | 25 |
| COCCN(CCOC)C(COC)C(=O)Oc1c(OC)cc(C)cc1OC (stereo not shown) [Example 3i, 2-[N-Bis(2-methoxyethyl)amino]-3-methoxypropionic acid, 2,6-dimethoxy-4-methylphenyl ester] | 28 |
| COCC(C(=O)Oc1c(OC)cc(C)cc1OC)N1CCCOCC1 (stereo not shown) [Example 3m, 2-[4-(Hexahydro-1-oxazepinyl)]-3-methoxypropionic acid, 2,6-dimethoxy-4-methylphenyl ester] | 31 |
| COCCCN(CCCOC)C(COC)C(=O)Oc1c(OC)cc(C)cc1OC (stereo not shown) [Example 3p, 2-[N-Bis(3-methoxypropyl)amino]-3-methoxypropionic acid, 2,6-dimethoxy-4-methylphenyl ester] | 46 |
| CCOCCN(CCOCC)C(COC)C(=O)Oc1c(OC)cc(C)cc1OC (stereo not shown) [Example 3q, 2-[N-Bis(2-ethoxyethyl)amino]-3-methoxypropionic acid, 2,6-dimethoxy-4-methylphenyl ester] | 23 |
| CCOCC(C(=O)Oc1c(OC)cccc1OC)N1CCCOCC1 (stereo not shown) [Example 3r, 3-Ethoxy-2-[4-(Hexahydro-1-oxazepinyl)]propionic acid, 2,6-dimethoxyphenyl ester] | 20 |
| COCCN(CCOC)C(COC)C(=O)Oc1c(OC)cc(C)cc1OC (stereo not shown) [Example 4a, 2-[N-Bis(2-methoxyethyl)amino]-3-methoxypropionic acid, 2,6-dimethoxy-4-methylphenyl ester] | 28 |
| COCCC(C(=O)Oc1c(OC)cccc1OC)N1CCCOCC1 (stereo not shown) [Example 10a, 2-[4-(Hexahydro-1-oxazepinyl)]-4-methoxybutyric acid, 2,6-dimethoxyphenyl ester] | 15 |
| COCCC(C(=O)Oc1c(OC)cccc1OC)N1CC=CCC1 (stereo not shown) [Example 10c, 4-Methoxy-2-[1-(1,2,3,6-tetrahydropyridinyl)]butyric acid, 2,6-dimethoxyphenyl ester] | 22 |
| COCCC(C(=O)Oc1c(OC)cccc1OC)N1CCC(OC)CC1 (stereo not shown) [Example 10d, 4-Methoxy-2-[1-(4-methoxypiperidinyl)]butyric acid, 2,6-dimethoxyphenyl ester] | 21 |
| COCCC(C(=O)Oc1c(OC)cccc1OC)N1CCCCCC1 (stereo not shown) [Example 10e, 2-[1-(Hexahydroazepinyl)]-4-methoxybutyric acid, 2,6-dimethoxyphenyl ester] | 17 |
| CCOCCN(CCOCC)C(CCOC)C(=O)Oc1c(OC)cccc1OC (stereo not shown) [Example 10g, 2-[N-(Bis(2-ethoxyethyl)amino)]-4-methoxybutyric acid, 2,6-dimethoxyphenyl ester] | 28 |
| COCCC(C(=O)Oc1c(OC)cccc1OC)N(CCOC)CCOC (stereo not shown) [Example 10h, 2-[N-(Bis(2-methoxyethyl)amino)]-4-methoxybutyric acid, 2,6-dimethoxyphenyl ester] | 27 |
| COCCC(C(=O)Oc1c(OC)cc(C)cc1OC)N1CCCOCC1 (stereo not shown) [Example 10j, 2-[4-(Hexahydro-1-oxazepinyl)]-4-methoxybutyric acid, 2,6-dimethoxy-4-methylphenyl ester] | 25 |
| COCCC(C(=O)Oc1c(OC)cc(C)cc1OC)N1CCC(OC)CC1 (stereo not shown) [Example 10k, 4-Methoxy-2-[1-(4-methoxypiperidinyl)]butyric acid, 2,6-dimethoxy4-methylphenyl ester] | 34 |
| COCCC(C(=O)Oc1c(OC)cc(C)cc1OC)N(CCOC)CCOC (stereo not shown) [Example 10l, 2-[N-(Bis(2-methoxyethyl)amino)]-4-methoxybutyric acid, 2,6-dimethoxy-4-methylphenyl ester] | 26 |
| CCOCCN(CCOCC)C(CCOC)C(=O)Oc1c(OC)cc(C)cc1OC (stereo not shown) [Example 10m, 2-[N-(Bis(2-ethoxyethyl)amino)]-4-methoxybutyric acid, 2,6-dimethoxy-4-methylphenyl ester] | 25 |
| COCCC(C(=O)Oc1c(OC)cc(C)cc1OC)N1CCCCCC1 (stereo not shown) [Example 10n, 2-[1-(Hexahydroazepinyl)]-4-methoxybutyric acid, 2,6-dimethoxy-4-methylphenyl ester] | 38 |
